Assay results taken from patent US20210106687A1, “BOLAAMPHIPHILIC COMPOUNDS, COMPOSITIONS AND USES THEREOF” (Lauren Sciences LLC, priority 2012, published 2021).

Tests used:
[1] = tested on: b.End3 cells; assay: Internalization of CF by the cells in vitro, FACS; format: cell-based, mouse; conditions: equivalent to 0.5 μg/mL CF
Method: b.End3 immortalized mouse brain capillary endothelium cells were kindly provided by Prof Philip Lazarovici (Institute for Drug Research, School of Pharmacy, The Hebrew University of Jerusalem, Israel). The b.End3 cells were cultured in DMEM medium supplemented with 10% fetal bovine serum, 2 mM L-Glutamine, 100 IU/mL penicillin and 100 μg/mL streptomycin (Biological Industries Ltd., Beit Haemek, Israel). The cells were maintained in an incubator at 37° C. in a humidified atmosphere with 5% CO2.
All the images were acquired using the same imaging settings and were not corrected or modified.
The inventors investigated whether this trend is still apparent in the interaction of magnetic and non-magnetic bolavesicles with brain capillary endothelial cells. To this end, the inventors used murine b.End3 cells, which are one of the most extensively used cell lines for brain uptake and permeability studies^25. […] Previously, the inventors extensively used ^b.End3 cells to analyze uptake and intracellular fate of bolavesicles encapsulating model proteins and marker compounds^8.

[2] = tested on: b.End3 cells; assay: Internalization of CF by the cells in vitro, confocal fluorescence microscopy; format: cell-based, mouse; conditions: 5 h at 37° C.; FIG. 4
Method: b.End3 cells were grown on 24-well plates or on coverslips (for FACS and fluorescence microscopy analysis, respectively). The medium was replaced with culture medium without serum and CF solution, or tested bolavesicles (equivalent to 0.5 μg/mL CF), or equivalent volume of the medium were added to the cells and incubated for 5 hr at 4° C. or at 37° C. At the end of the incubation, cells were extensively washed with complete medium and with PBS, and were either detached from the plates using trypsin-EDTA solution (Biological Industries Ltd., Beit Haemek, Israel) and analyzed by FACS (FACSCalibur Flow Cytometer, BD Biosciences, USA), or fixed with 2.5% formaldehyde in PBS, washed twice with PBS, mounted on slides using Mowiol-based mounting solution and analyzed using a FV1000-IX81 confocal microscope (Olympus, Tokyo, Japan) equipped with 60× objective. All the images were acquired using the same imaging settings and were not corrected or modified.

carboxyfluorescein [CF]
Internalization by b.End3 cells (FACS) ([1]; 5 hr at 4° C.): not able to internalize | Internalization by b.End3 cells (FACS) ([1]; 5 hr at 37° C.): not able to internalize | Endocytosis of CF by b.End3 cells (confocal microscopy) [2]: endocytosed by the bEnd.3 cells only when encapsulated within the bolavesicles
